# Measurements: patent US11065253B2, “Arylquinazolines” (Merck Patent GmbH, priority 2013, dated 2021)
# System: phospho-serine 2056 DNA-PK in HCT116 cells
# Experiment: DNA-PK phosphorylation at serine 2056 (cellular), ELISA in bleomycin-treated HCT116 cells
# Format: cell-based
# Settings: Homo sapiens, HCT-116, 6 h, cellular; HCT116 cells, 10 μM bleomycin, six hours; read-out: IC50 pDNA-PK
# Experimental: HCT116 cells were cultivated at 37° C. and 10% CO2 in MEM alpha medium with 10% of foetal calf serum and 2 mM glutamine. The cells were detached from the base of the culture vessels with the aid of trypsin/EDTA, centrifuged off in centrifuge tubes, taken up in fresh medium, and the cell density was determined. 100,000 cells were sown in 1 ml of culture medium per cavity of a 24-well cell culture plate and cultivated overnight. Next day, 10 μM bleomycin (DNA intercalator and inductor of DNA double-strand breaks) and test substances in fresh culture medium were added to the cells, and these were cultivated for a further six hours. […] The 96-well ELISA plates were subsequently treated with a detection antibody (Abcam ab79444: total DNA-PK) and a streptavidin-HRP conjugate. The development of the enzymatic reaction was carried out with the aid of a chemiluminescent reagent, the chemiluminescence was measured with the aid of a Mithras LB940. The signals with the phospho-DNA-PK-specific antibody were standardised to the signal with the antibody against the total protein DNA-PKc. […] The DMSO control was used as blank.
row,SMILES,IC50 [µM]
1,"OC(c1cnccn1)c1cc(-c2ncnc3cc(N4CCOCC4)ccc23)c(F)cc1Cl (stereo not shown) [Example 34, [2-Chloro-4-fluoro-5-(7-morpholin-4-yl-quinazolin-4-yl)phenyl]-pyrazin-2-ylmethanol]",5 to 10
2,"O[C@H](c1ccc(F)c(-c2ncnc3cc(N4CCOCC4)ccc23)c1)c1nccnc1Cl [Example 27, (R)-(3-Chloro-pyrazin-2-yl)-[4-fluoro-3-(7-morpholin-4-yl-quinazolin-4-yl)phenyl]-methanol]",< 0.5
3,"OC(c1ccc2nccn2n1)c1cc(-c2ncnc3cc(N4CCOCC4)ccc23)c(F)cc1Cl (stereo not shown) [Example 56, [2-Chloro-4-fluoro-5-(7-morpholin-4-yl-quinazolin-4-yl)phenyl]-imidazo[1,2-b]pyridazin-6-ylmethanol]",0.5 to 5
4,"OC(c1ccc(F)c(-c2ncnc3cc(N4CCOCC4)ccc23)c1)c1nccnc1OC1COC1 (stereo not shown) [Example 32, [4-fluoro-3-(7-morpholin-4-yl-quinazolin-4-yl)phenyl]-[3-(oxetan-3-yloxy)-pyrazin-2-yl]methanol]",5 to 10
5,"OC(c1ccc(F)c(-c2ncnc3cc(N4CCOCC4)ccc23)c1)c1nc(Cl)cnc1Cl (stereo not shown) [Example 35, (3,6-Dichloro-pyrazin-2-yl)-[4-fluoro-3-(7-morpholin-4-yl-quinazolin-4-yl)phenyl]-methanol]",< 0.5
6,"COc1ccc([C@@H](O)c2ccc(F)c(-c3ncnc4cc(N5CCOCC5)ccc34)c2)nn1 [Example 72, (S)-[4-Fluoro-3-(7-morpholin-4-yl-quinazolin-4-yl)phenyl]-(6-methoxypyridazin-3-yl)methanol]",0.5 to 5
7,"O=c1[nH]ccnc1C(O)c1ccc(F)c(-c2ncnc3cc(N4CCOCC4)ccc23)c1 (stereo not shown) [Example 5, 3-{[4-Fluoro-3-(7-morpholin-4-yl-quinazolin-4-yl)phenyl]-hydroxymethyl}-1H-pyrazin-2-one]",10 to 30
8,"OC(c1cc(-c2ncnc3cc(N4CCOCC4)ccc23)c(F)cc1F)c1ncnc2sccc12 (stereo not shown) [Example 90, [2,4-Difluoro-5-(7-morpholin-4-yl-quinazolin-4-yl)-phenyl]thieno[2,3-d}-pyrimidin-4-ylmethanol]",< 0.5
9,"OC(c1ccn2nccc2n1)c1cc(-c2ncnc3cc(N4CCOCC4)ccc23)c(F)cc1Cl (stereo not shown) [Example 39, [2-Chloro-4-fluoro-5-(7-morpholin-4-yl-quinazolin-4-yl)phenyl]-pyrazolo[1,5-a]-pyrimidin-5-ylmethanol]",< 0.5

# Same assay, conditions: Homo sapiens, HCT-116, cellular DNA-PK phosphorylation at serine 2056, HCT116 cells; read-out: IC50 pDNA-PK
row,SMILES,IC50 [µM]
1,"CN1CCN(c2nccnc2C(O)c2ccc(F)c(-c3ncnc4cc(N5CCOCC5)ccc34)c2)C1=O (stereo not shown) [Example 424, 1-(3-{[4-Fluoro-3-(7-morpholin-4-yl-quinazolin-4-yl)-phenyl]hydroxy-methyl}pyrazin-2-yl)-3-methyl-imidazolidin-2-one]",10 to 30
2,"OC(c1cc(-c2ncnc3cc(N4CCOCC4)ccc23)c(F)cc1F)c1nnc2ccccn12 (stereo not shown) [Example 379, [2,4-Difluoro-5-(7-morpholin-4-yl-quinazolin-4-yl)-phenyl]-[1,2,4]-triazolo[4,3-a]pyridin-3-ylmethanol]",0.5 to 5
3,"OC(c1cc(-c2ncnc3cc(N4CCOCC4)ccc23)c(F)cc1F)c1ncnc2ccoc12 (stereo not shown) [Example 444, [2,4-Difluoro-5-(7-morpholin-4-yl-quinazolin-4-yl)-phenyl]furo[3,2-d}-pyrimidin-4-yl-methanol]",0.5 to 5
4,"COc1cncnc1C(O)c1cc(-c2ncnc3cc(N4CCOCC4)ccc23)c(F)cc1Cl (stereo not shown) [Example 447, [2-Chloro-4-fluoro-5-(7-morpholin-4-yl-quinazolin-4-yl)-phenyl]-(5-methoxy-pyrimidin-4-yl)-methanol]",0.5 to 5
5,"OC(c1ccc(F)c(-c2ncnc3cc(N4CCOCC4)ccc23)c1)c1nnc2ccccn12 (stereo not shown) [Example 399, [4-Fluoro-3-(7-morpholin-4-yl-quinazolin-4-yl)-phenyl]-[1,2,4]-triazolo[4,3-a]pyridin-3-ylmethanol]",0.5 to 5

# Same assay, conditions: Homo sapiens, HCT-116, phospho-serine 2056 DNA-PK, bleomycin-treated HCT116 cells; class symbols A-D; read-out: IC50 pDNA-PK
row,SMILES,IC50 [µM]
1,"N#CCCOc1ccc(C(O)c2cc(-c3ncnc4cc(N5CCOCC5)ccc34)c(F)cc2Cl)nn1 (stereo not shown) [Example 107, 3-(6-{[2-Chloro-4-fluoro-5-(7-morpholin-4-yl-quinazolin-4-yl)-phenyl]hydroxy-methyl}pyridazin-3-yl-oxy)propionitrile]",0.5 to 5
2,"OC(c1ccc(F)c(-c2ncnc3cc(N4CCOCC4)ncc23)c1)c1nccs1 (stereo not shown) [Example 140, [4-Fluoro-3-(7-morpholin-4-yl-pyrido[4,3-d}-pyrimidin-4-yl)-phenyl]thiazol-2-yl-methanol]",10 to 30
3,"Cc1nc(C(O)c2cc(-c3ncnc4cc(N5CCOCC5)ccc34)cnc2F)sc1C (stereo not shown) [Example 205, (4,5-Dimethyl-thiazol-2-yl)-[2-fluoro-5-(7-morpholin-4-yl-quinazolin-4-yl)-pyridin-3-yl]-methanol]",10 to 30
4,"OCc1csc([C@H](O)c2cc(-c3ncnc4cc(N5CCOCC5)ccc34)c(F)cc2Cl)n1 [Example 186, (R)-[2-Chloro-4-fluoro-5-(7-morpholin-4-yl-quinazolin-4-yl)-phenyl]-(4-hydroxymethyl-thiazol-2-yl)-methanol]",5 to 10
5,"O=C(O)COc1ccc(C(O)c2cc(-c3ncnc4cc(N5CCOCC5)ccc34)c(F)cc2Cl)nn1 (stereo not shown) [Example 113, (6-{[2-Chloro-4-fluoro-5-(7-morpholin-4-yl-quinazolin-4-yl)-phenyl]hydroxy-methyl}pyridazin-3-yl-oxy)acetic acid]",10 to 30

# Same assay, conditions: Homo sapiens, HCT-116, phospho-serine 2056 DNA-PK, bleomycin-treated HCT116 cells; read-out: IC50 pDNA-PK
row,SMILES,IC50 [µM]
1,"NC(=O)C(c1ccc(F)c(-c2ncnc3cc(N4CCOCC4)ccc23)c1)c1nnc(Cl)c2sccc12 (stereo not shown) [Example 291, 2-(7-Chlorothieno-[2,3-d}pyridazin-4-yl)-2-[4-fluoro-3-(7-morpholin-4-yl-quinazolin-4-yl)-phenyl]acetamide]",5 to 10
2,"Cc1nccnc1C(O)c1ccc(F)c(-c2ncnc3cc(N4CCOCC4)c(F)cc23)c1 (stereo not shown) [Example 283, [4-Fluoro-3-(6-fluoro-7-morpholin-4-yl-quinazolin-4-yl)-phenyl]-(3-methyl-pyrazin-2-yl)-methanol]",10 to 30
3,"[2H]C1([2H])OC([2H])([2H])C([2H])([2H])N(c2ccc3c(-c4cc(C(O)c5nccnc5OC)c(Cl)cc4F)ncnc3c2)C1([2H])[2H] (stereo not shown) [Example 241, [2-Chloro-4-fluoro-5-[7-(2,2,3,3,5,5,6,6-octadeuterio-morpholin-4-yl)quinazolin-4-yl]phenyl]-(3-methoxypyrazin-2-yl)methanol]",< 0.5
4,"Cc1nccnc1Cc1ccc(F)c(-c2ncnc3cc(N4CCOCC4)ccc23)c1 [Example 349, 4-[2-Fluoro-5-(3-methyl-pyrazin-2-ylmethyl)phenyl]-7-morpholin-4-yl-quinazoline]",< 0.5
5,"NC(=O)C(c1ccc(F)c(-c2ncnc3cc(N4CCOCC4)ccc23)c1)c1nncc2sccc12 (stereo not shown) [Example 285, 2-[4-Fluoro-3-(7-morpholin-4-yl-quinazolin-4-yl)-phenyl]-2-thieno-[2,3-d}pyridazin-4-yl-acetamide]",10 to 30

# Same assay, conditions: cellular DNA-PK phosphorylation at serine 2056, HCT116 cells; read-out: IC50 pDNA-PK
row,SMILES,IC50 [µM]
1,"COc1nccnc1[C@@H](O)c1cc(-c2ncnc3cc(N4CCOCC4)ccc23)ccc1Cl [Example 411, (S)-[2-Chloro-5-(7-morpholin-4-yl-quinazolin-4-yl)-phenyl]-(3-methoxy-pyrazin-2-yl)-methanol (Ena 1)]",0.5 to 5
2,"OC(c1cc(-c2ncnc3cc(N4CCOCC4)ccc23)c(F)cc1Cl)c1nccn2ccnc12 (stereo not shown) [Example 397, [2-Chloro-4-fluoro-5-(7-morpholin-4-yl-quinazolin-4-yl)-phenyl]imidazo-[1,2-a]pyrazin-8-yl-methanol]",< 0.5
3,"COc1nccnc1C(O)c1cc(-c2ncnc3cc(N4CCOCC4)ccc23)c(F)cc1F (stereo not shown) [Example 467, [2,4-Difluoro-5-(7-morpholin-4-yl-quinazolin-4-yl)-phenyl]-(3-methoxy-pyrazin-2-yl)-methanol]",< 0.5

# Same assay, conditions: cellular; HCT116 cells, 10 μM bleomycin, six hours; read-out: IC50 pDNA-PK
row,SMILES,IC50 [µM]
1,"OC(c1cccnn1)c1cc(-c2ncnc3cc(N4CCOCC4)ccc23)c(F)cc1Cl (stereo not shown) [Example 30, [2-Chloro-4-fluoro-5-(7-morpholin-4-yl-quinazolin-4-yl)phenyl]-pyridazin-3-ylmethanol]",< 0.5

# Same assay, conditions: phospho-serine 2056 DNA-PK, bleomycin-treated HCT116 cells; read-out: IC50 pDNA-PK
row,SMILES,IC50 [µM]
1,"OC(c1ccc(F)c(-c2ncnc3cc(N4CCOCC4)ccc23)c1)c1nnc2ccccn12 (stereo not shown) [Example 343, [4-Fluoro-3-(7-morpholin-4-yl-quinazolin-4-yl)-phenyl]-[1,2,4]-triazolo[4,3-a]pyridin-3-ylmethanol (Ena 2)]",0.5 to 5
2,"Cn1cnc2c(C(O)c3cc(-c4ncnc5cc(N6CCOCC6)ccc45)c(F)cc3F)ncnc21 (stereo not shown) [Example 347, [2,4-Difluoro-5-(7-morpholin-4-yl-quinazolin-4-yl)-phenyl]-(9-methyl-9H-purin-6-yl)-methanol (Ena 1)]",0.5 to 5
3,"[2H]C1([2H])OC([2H])([2H])C([2H])([2H])N(c2ccc3c(-c4cc(C(O)c5ccc(OC)nn5)c(Cl)cc4F)ncnc3c2)C1([2H])[2H] (stereo not shown) [Example 239, [2-Chloro-4-fluoro-5-[7-(2,2,3,3,5,5,6,6-octadeuterio-morpholin-4-yl)quinazolin-4-yl]phenyl]-(6-methoxypyridazin-3-yl)methanol]",10 to 30
